In patent publication US20240300881A1, “PROCESS FOR PREPARATION OF LITHIUM L-THREONATE AND USE THEREOF” (XIXIOXOME BIOTHERAPEUTICS, priority 2023, published 2024):

Key:
[1] = tested on: schizoaffective disorder; conditions: cited from earlier work
[2] = stability in high thermal condition
[3] = precipitation of lithium hydroxide from solution at different pH; format: physicochemical
Source text: L-threonic acid was selected as the ligand for lithium ion, because L-threonic acid can accelerate the absorption of the ion.

[4] = tested on: AAD; conditions: low-dose; cited from earlier work

NC(=O)N1c2ccccc2C=Cc2ccccc21 [carbamazepine]
prophylactic efficacy in maintenance treatment [1]: equipotent alternatives

O=C([O-])[C@H](O)[C@@H](O)CO.[Li+] [lithium L-threonate]
temperature of decomposition [2]: > 300 °C | precipitate of lithium hydroxide ([3]; basic condition): no precipitate of lithium hydroxide | precipitate of lithium hydroxide ([3]; small intestine (pH˜7)): no precipitate of lithium hydroxide | dissolution in alcohol and ether (alcohol and ether): no dissolution in alcohol and ether | dissolution in water (water): dissolution in water

O=C([O-])[O-].[Li+].[Li+] [lithium carbonate]
efficacy in treating agitation [4]: not efficacious | global clinical improvement [4]: associated with global clinical improvement
